The values that follow are results of earlier work, collected in patent US20220409533A1, “LAG TIME REDUCTION/ICE SPRAY” (LTS LOHMANN THERAPIE-SYSTEME AG, priority 2019, published 2022).

The conditions of the series: transdermal application.

Each structure is given as a SMILES string.

Consider `CN1CCCC1c1cccnc1` (stereo not shown) [nicotine], for which the “resorption delay time (lag time)” value is 6 h.
